# In US20200392158A1, “INHIBITORS OF LEUCINE RICH REPEAT KINASE 2” (GLAXOSMITHKLINE INTELLECTUAL PROPERTY DEVELOPMENT LIMITED, priority 2017, published 2020):
# Molecular target: T1, full length G2019 human LRRK2 (Homo sapiens, UniProt Q5S007, R50H)
# T1 construct: made in house; host or cells: HEK293 6E cells transduced with BacMam virus (virus generated in Sf9 cells)
# Experiment: Full length G2019 human LRRK2 inhibition mass spectrometry assay
# Type: biochemical
# Conditions: LRRKtide to phospho-LRRKtide conversion, RapidFire MS, 2 mM ATP
# Method: a. Full Length G2019 Human LRRK2 Inhibition Mass Spectrometry Assay
# This assay for Leucine Rich Repeat Kinase 2 (LRRK2) inhibition is based on the direct measurement of the peptide ‘LRRKtide’ (LRRKtide: RLGRDKYKT*LRQIRQ and “*” refers to the site of phosphorylation.) and phosphorylated ‘LRRKtide’ using a high throughput Rapid Fire mass spectrometry assay. Inhibitors are compounds that reduce the conversion of LRRKtide to phospho-LRRKtide.
# • 1) Compounds were dissolved in 100% DMSO at a concentration of 10 mM, and 11-point dose response curves generated using a 1 in 4 serial dilution in DMSO. 100 nL of this dilution series was then added to a 384 well, v bottom polypropylene plate (Greiner 781280), excluding columns 6 and 18. 100 nL of DMSO were added to column 6 to serve as the high control, while column 18 served as the low control containing assay buffer in place of the LRRK2 protein. Assay dilution gave a top final assay concentration of test compound of […] • 2) 5 μL of ‘enzyme solution’ containing 2× final assay concentration of purified recombinant Full length Flag-LRRK2 in assay buffer (50 mM Hepes, pH 7.2, 10 mM MgCl2, 150 mM NaCl, 5% glycerol, 0.0025% Triton X-100 and 1 mM DTT) were added to all wells using a Multidrop Combi dispenser (ThermoFisher Scientifiec), giving a final assay concentration of 25 nM LRRK2 enzyme (final concentration may vary depending on specific activity of different enzyme batches). • 3) 5 μL of substrate solution containing 50 μM LRRKtide peptide substrate and […] was added to all wells of the plate using a Multidrop Combi dispenser giving a final assay concentration of 25 μM LRRKtide peptide and 2 mM ATP. Test plates were then incubated for 1 hour at room temperature. (Incubation may vary depending on rate and linearity of reaction with different enzyme batches). • 4) 50 μl of 1% formic acid in laboratory grade water was added to all wells to quench the reaction, and plates were heat-sealed prior to centrifugation at 1348×g for 10 minutes. Test plates were then analysed on an Agilent RapidFire High Throughput solid phase extraction system coupled to AB Sciex API 4000 triple quadropole mass spectrometer with the following setting:
# • Sip Height=2 mm, Aspirate=500 ms, Load time=3000 ms, Elution time=3000 ms, Requilibration=500 ms. • Flow rates: pump 1=1.5 mL/min, pump 2 1.25 mL/min pump 3=0.8 mL/min
# Mass Spectrometer Settings: • LRRKtide Detection settings: Q1 mass 644.8 Da, Q3 mass 638.8, declustering potential 76 volts, collision energy 37 volts, CXP 34 volts. • Phospho-LRRKtide Detection settings: Q1 mass 671.4 Da, Q3 mass 638.8, Declustering potential 76 volts, Collision energy 37 volts, CXP 34 volts. • A C4 cartridge was used and running buffers were: A (aqueous) 0.1% formic acid in water B (organic) 0.1% formic acid, 80% acetonitrile, 20% water. • Collision gas: 12, Curtain gas: 25, Ion Source gas (1): 60, Ion Source gas (2): 60, Ion Spray Voltage: 5500, Temperature: 600, Interface Heater: ON. • Resolution Q1: low, Resolution Q3: low. • 5) Data were analysed using ActivityBase software (IDBS). A percent conversion from LRRKtide to Phospho-LRRKtide was calculated using the following formula:
# % conversion=(Phospho-LRRKtide product peak area/(Phospho-LRRKtide product peak area+LRRKtide substrate peak area))*100 • A logistic 4 parameter curve fit was applied, using the following formula,
# [formula] • Where x is the concentration of test sample, y is inhibition (%), a is the minimum, b is the Hill slope, c is the IC50 and d is the maximum. From this, the pIC50 was derived (−log IC50).
# T1 sequence (Q5S007 with tags, fused parts or gaps R50H): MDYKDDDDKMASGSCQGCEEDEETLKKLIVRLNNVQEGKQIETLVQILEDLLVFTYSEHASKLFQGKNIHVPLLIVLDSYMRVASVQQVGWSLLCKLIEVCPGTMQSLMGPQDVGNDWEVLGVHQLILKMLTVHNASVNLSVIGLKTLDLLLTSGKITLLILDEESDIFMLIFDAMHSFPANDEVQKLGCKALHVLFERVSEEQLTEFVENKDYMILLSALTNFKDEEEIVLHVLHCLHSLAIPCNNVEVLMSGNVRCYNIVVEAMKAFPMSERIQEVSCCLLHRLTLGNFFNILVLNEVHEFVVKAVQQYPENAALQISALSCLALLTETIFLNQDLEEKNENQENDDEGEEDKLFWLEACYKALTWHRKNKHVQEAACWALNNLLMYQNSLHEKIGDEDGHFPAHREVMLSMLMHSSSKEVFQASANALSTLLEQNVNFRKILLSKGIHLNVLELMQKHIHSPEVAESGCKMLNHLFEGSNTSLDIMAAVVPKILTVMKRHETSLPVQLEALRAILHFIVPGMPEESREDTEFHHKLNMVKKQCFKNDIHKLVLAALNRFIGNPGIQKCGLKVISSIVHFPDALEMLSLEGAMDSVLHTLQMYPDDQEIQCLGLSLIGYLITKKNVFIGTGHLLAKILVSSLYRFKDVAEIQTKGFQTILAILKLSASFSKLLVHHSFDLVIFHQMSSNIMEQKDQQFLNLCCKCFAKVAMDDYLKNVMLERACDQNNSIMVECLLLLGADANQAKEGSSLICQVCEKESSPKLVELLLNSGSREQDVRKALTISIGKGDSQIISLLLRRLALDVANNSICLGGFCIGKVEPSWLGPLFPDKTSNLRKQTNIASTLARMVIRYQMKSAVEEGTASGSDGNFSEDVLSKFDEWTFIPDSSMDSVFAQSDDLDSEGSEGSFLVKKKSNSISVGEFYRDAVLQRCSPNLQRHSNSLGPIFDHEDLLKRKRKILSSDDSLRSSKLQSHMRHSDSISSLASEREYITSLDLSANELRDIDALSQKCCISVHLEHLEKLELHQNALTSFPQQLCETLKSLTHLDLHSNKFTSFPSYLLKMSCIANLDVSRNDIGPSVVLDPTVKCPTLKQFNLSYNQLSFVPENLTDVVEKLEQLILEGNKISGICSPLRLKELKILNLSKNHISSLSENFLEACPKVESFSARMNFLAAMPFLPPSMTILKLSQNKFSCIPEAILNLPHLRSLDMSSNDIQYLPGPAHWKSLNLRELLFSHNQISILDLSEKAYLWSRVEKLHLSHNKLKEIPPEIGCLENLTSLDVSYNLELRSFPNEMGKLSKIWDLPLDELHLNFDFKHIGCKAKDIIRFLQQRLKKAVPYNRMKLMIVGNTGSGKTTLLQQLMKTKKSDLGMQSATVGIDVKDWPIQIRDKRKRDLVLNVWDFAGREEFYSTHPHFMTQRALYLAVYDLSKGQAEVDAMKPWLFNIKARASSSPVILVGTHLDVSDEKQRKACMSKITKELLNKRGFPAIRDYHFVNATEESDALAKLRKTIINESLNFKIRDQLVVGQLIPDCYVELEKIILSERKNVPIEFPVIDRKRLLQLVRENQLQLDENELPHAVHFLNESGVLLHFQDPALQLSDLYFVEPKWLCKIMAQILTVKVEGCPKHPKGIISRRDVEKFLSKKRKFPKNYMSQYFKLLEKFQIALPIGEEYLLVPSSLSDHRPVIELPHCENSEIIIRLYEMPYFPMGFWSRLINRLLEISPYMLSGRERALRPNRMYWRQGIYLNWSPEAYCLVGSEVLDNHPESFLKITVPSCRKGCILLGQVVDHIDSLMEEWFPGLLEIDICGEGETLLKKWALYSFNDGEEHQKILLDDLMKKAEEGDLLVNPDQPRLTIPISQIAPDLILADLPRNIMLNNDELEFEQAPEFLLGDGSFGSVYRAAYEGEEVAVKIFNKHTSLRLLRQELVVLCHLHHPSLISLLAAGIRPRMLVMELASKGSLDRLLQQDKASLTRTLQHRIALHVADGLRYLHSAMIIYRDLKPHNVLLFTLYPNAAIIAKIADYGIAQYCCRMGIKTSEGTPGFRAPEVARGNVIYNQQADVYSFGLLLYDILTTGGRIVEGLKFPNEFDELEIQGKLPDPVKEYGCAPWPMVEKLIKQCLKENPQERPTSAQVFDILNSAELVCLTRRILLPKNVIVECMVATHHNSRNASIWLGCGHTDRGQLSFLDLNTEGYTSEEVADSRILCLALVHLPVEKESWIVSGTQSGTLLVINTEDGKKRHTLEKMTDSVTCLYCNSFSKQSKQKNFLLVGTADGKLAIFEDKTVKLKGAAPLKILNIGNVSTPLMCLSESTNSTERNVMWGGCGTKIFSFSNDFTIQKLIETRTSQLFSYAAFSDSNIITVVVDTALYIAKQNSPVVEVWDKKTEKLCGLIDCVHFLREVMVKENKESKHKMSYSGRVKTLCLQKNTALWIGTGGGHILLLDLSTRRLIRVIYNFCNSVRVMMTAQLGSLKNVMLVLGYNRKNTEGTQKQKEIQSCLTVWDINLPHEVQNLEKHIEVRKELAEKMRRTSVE
row,IC50 [nM],SMILES
1,≤ 100,"Cc1c2c(nn1C1CCOC1)OCCCNc1nc(ncc1Cl)N2 (single isomer, unassigned) [E124, 14-chloro-4-methyl-5-(oxolan-3-yl)-8-oxa-2,5,6,12,16,17-hexaazatricyclo[11.3.1.0^3,7]heptadeca-1(16),3,6,13(17), 14-pentaene]"
2,≤ 100,"Cc1c2c(nn1C1CCOC1)OCCCNc1nc(ncc1C(F)(F)F)N2 (single isomer, unassigned) [E128, 4-methyl-5-(oxolan-3-yl)-14-(trifluoromethyl)-8-oxa-2,5,6,12,16,17-hexaazatricyclo[11.3.1.0^3,7]heptadeca-1(16),3,6,13(17),14-pentaene]"
3,≤ 100,"Cc1c2c(nn1C1CCOCC1)OCC(C)CNc1nc(ncc1Cl)N2 (single isomer, unassigned) [E137, 14-chloro-4,10-dimethyl-5-(oxan-4-yl)-8-oxa-2,5,6,12,16,17-hexaazatricyclo[11.3.1.0^3,7]heptadeca-1(16),3,6,13(17),14-pentaene]"
4,≤ 100,"Cc1c2c(nn1C1CCOCC1C)OCCCNc1nc(ncc1Cl)N2 (single isomer, unassigned) [E140, 14-chloro-4-methyl-5-(3-methyloxan-4-yl)-8-oxa-2,5,6,12,16,17-hexaazatricyclo[11.3.1.0^3,7]heptadeca-1(16),3,6,13(17),14-pentaene]"
5,≤ 100,"Cc1c2c(nn1C1CCOCC1C)OCCCNc1nc(ncc1Cl)N2 (single isomer, unassigned) [E141, 14-chloro-4-methyl-5-(3-methyloxan-4-yl)-8-oxa-2,5,6,12,16,17-hexaazatricyclo[11.3.1.0^3,7]heptadeca-1(16),3,6,13(17),14-pentaene]"
6,≤ 100,"Clc1cnc2nc1NCCCOc1nn(C3CCOC3)c(Cl)c1N2 (single isomer, unassigned) [E146, 4,14-Dichloro-5-(oxolan-3-yl)-8-oxa-2,5,6,12, 16,17-hexaaza tricyclo[11.3.1.0^3,7]heptadeca-1(16),3,6,13(17), 14-pentaene]"
7,≤ 100,"Cc1c2c(nn1C1CCC(N3CCC(F)C3)CC1)OCCCNc1nc(ncc1Cl)N2 (single isomer, unassigned) [E154, 14-Chloro-5-[4-(3-fluoropyrrolidin-1-yl)cyclohexyl]-4-methyl-8-oxa-2,5,6,12,16,17-hexaazatricyclo[11.3.1. 0^3,7]heptadeca-1(16),3,6,13(17),14-pentaene]"
8,≤ 100,"Cc1c2c(nn1C1CCC(N3CCC(F)C3)CC1)OCCCNc1nc(ncc1Cl)N2 (single isomer, unassigned) [E155, 14-Chloro-5-[4-(3-fluoropyrrolidin-1-yl)cyclohexyl]-4-methyl-8-oxa-2,5,6,12,16,17-hexaazatricyclo[11.3.1. 0^3,7]heptadeca-1(16),3,6,13(17),14-pentaene]"
9,≤ 100,"COC1CCCC(n2nc3c(c2C)Nc2ncc(Cl)c(n2)NCCCO3)C1 (single isomer, unassigned) [E180, 14-Chloro-5-(3-methoxycyclohexyl)-4-methyl-8-oxa-2,5,6,12,16,17-hexaazatricyclo[11.3.1.0^3,7]heptadeca-1(16),3,6,13(17),14-pentaene]"
10,100000,"COC1CCCC(n2nc3c(c2C)Nc2ncc(Cl)c(n2)NCCCO3)C1 (single isomer, unassigned) [E181, 14-Chloro-5-(3-methoxycyclohexyl)-4-methyl-8-oxa-2,5,6,12,16,17-hexaazatricyclo[11.3.1.0^3,7]heptadeca-1(16),3,6,13(17),14-pentaene]"
11,≤ 10000,"Cc1c2c(nn1C(C)C1CCOCC1)OCCC(C)Nc1nc(ncc1Cl)N2 (single isomer, unassigned) [E182, 14-Chloro-4,11-dimethyl-5-[1-(oxan-4-yl)ethyl]-8-oxa-2,5,6,12,16,17-hexaazatricyclo[11.3.1.0^3,7]heptadeca-1(16),3,6,13(17),14-pentaene]"
